According to ChEMBL document CHEMBL5724914, “Linking interpersonal differences in gut microbiota composition and drug biotransformation activity” (2024):

Columns and labels:
[1] = human gut metagenome, 24 h, 2 µM
[2] = human gut metagenome, 24 h, 2 µM; remark: listed apart in the source
[3] = (§1) The drug is tested on WLS-052 corresponding to human gut metagenome with ENA study accession number: PRJEB37062 and ENA sample accession number: ERS12561747 for biotransformation under anaerobic condition. The drug concentrations were measured over 9 timepoints collected between 0 and 24 hours of incubation by liquid-chromatography-coupled mass spectrometry (LC–MS); settings: 2 µM
[4] = as §1, with “Z-005” for “WLS-052”, “to” for “to human gut”, “ERS12561805” for “ERS12561747”; settings: 2 µM
[5] = as §1, with “Z-020” for “WLS-052”, “rabbit” for “human”, “ERS12561819” for “ERS12561747”; settings: 2 µM
[6] = human gut metagenome, 24 h, 2 µM; remark: listed apart in the source
[7] = as §1, with “WLS-090” for “WLS-052”, “ERS12561753” for “ERS12561747”; settings: 2 µM
[8] = as §1, with “WLS-039” for “WLS-052”, “ERS12561746” for “ERS12561747”; settings: 2 µM
[9] = as §1, with “Z-002” for “WLS-052”, “rabbit” for “human”, “ERS12561802” for “ERS12561747”; settings: 2 µM
[10] = human gut metagenome, 24 h, 2 µM; remark: listed apart in the source
[11] = human gut metagenome, 24 h, 2 µM; remark: listed apart in the source
[12] = as §1, with “Z-024” for “WLS-052”, “pig” for “human”, “ERS12561823” for “ERS12561747”; settings: 2 µM
[13] = human gut metagenome, 24 h, 2 µM; remark: listed apart in the source
[14] = as §1, with “WLS-350” for “WLS-052”, “ERS12561789” for “ERS12561747”; settings: 2 µM
[15] = human gut metagenome, 24 h, 2 µM; remark: listed apart in the source
[16] = human gut metagenome, 24 h, 2 µM; remark: listed apart in the source
[17] = human gut metagenome, 24 h, 2 µM; remark: listed apart in the source
[18] = human gut metagenome, 24 h, 2 µM; remark: listed apart in the source
[19] = human gut metagenome, 24 h, 2 µM; remark: listed apart in the source
[20] = as §1, with “Z-026” for “WLS-052”, “to” for “to human gut”, “ERS12561825” for “ERS12561747”; settings: 2 µM
Also: call rule not given here.

Structure (SMILES) | Bacterial Biotransformation [1] | Bacterial Biotransformation [2] | Bacterial Biotransformation [3] | Bacterial Biotransformation [4] | Bacterial Biotransformation [5] | Bacterial Biotransformation [6] | Bacterial Biotransformation [7] | Bacterial Biotransformation [8] | Bacterial Biotransformation [9] | Bacterial Biotransformation [10] | Bacterial Biotransformation [11] | Bacterial Biotransformation [12] | Bacterial Biotransformation [13] | Bacterial Biotransformation [14] | Bacterial Biotransformation [15] | Bacterial Biotransformation [16] | Bacterial Biotransformation [17] | Bacterial Biotransformation [18] | Bacterial Biotransformation [19] | Bacterial Biotransformation [20]
C[C@@H](c1ncncc1F)[C@](O)(Cn1cncn1)c1ccc(F)cc1F [VORICONAZOLE] | Compound metabolized | Compound metabolized | Compound metabolized | Compound metabolized | Compound metabolized | Compound metabolized | Compound metabolized | Compound metabolized | Compound metabolized | Compound metabolized | Compound metabolized | Compound metabolized | Compound metabolized | Compound metabolized | Compound NOT metabolized | Compound metabolized | Compound metabolized | Compound metabolized | Compound metabolized | Compound NOT metabolized
CC(CCc1ccccc1)NCC(O)c1ccc(O)c(C(N)=O)c1 (stereo unspecified) [LABETALOL] | Compound metabolized | Compound NOT metabolized | Compound NOT metabolized | Compound NOT metabolized | Compound NOT metabolized | Compound NOT metabolized | Compound metabolized | Compound NOT metabolized | Compound NOT metabolized | Compound NOT metabolized | Compound NOT metabolized | Compound metabolized | Compound metabolized | Compound NOT metabolized | Compound NOT metabolized | Compound NOT metabolized | Compound NOT metabolized | Compound NOT metabolized | Compound metabolized | Compound NOT metabolized
O=C(NC(Cc1cc(=O)[nH]c2ccccc12)C(=O)O)c1ccc(Cl)cc1 (stereo unspecified) [REBAMIPIDE] | Compound NOT metabolized | Compound NOT metabolized | Compound NOT metabolized | Compound NOT metabolized | Compound NOT metabolized | Compound NOT metabolized | Compound NOT metabolized | Compound NOT metabolized | Compound metabolized | Compound metabolized | Compound NOT metabolized | Compound metabolized | Compound metabolized | Compound NOT metabolized | Compound NOT metabolized | Compound NOT metabolized | Compound NOT metabolized | Compound NOT metabolized | Compound metabolized | Compound NOT metabolized
OC(c1cc(C(F)(F)F)nc2c(C(F)(F)F)cccc12)C1CCCCN1 (stereo unspecified) [MEFLOQUINE] | Compound metabolized | Compound metabolized | Compound metabolized | Compound NOT metabolized | Compound metabolized | Compound metabolized | Compound metabolized | Compound metabolized | Compound metabolized | Compound NOT metabolized | Compound metabolized | Compound metabolized | Compound metabolized | Compound NOT metabolized | Compound metabolized | Compound NOT metabolized | Compound metabolized | Compound NOT metabolized | Compound NOT metabolized | Compound metabolized
CN1CCC[C@@H]1CCO[C@](C)(c1ccccc1)c1ccc(Cl)cc1.O=C(O)/C=C/C(=O)O [CLEMASTINE FUMARATE] | Compound metabolized | Compound NOT metabolized | Compound NOT metabolized | Compound NOT metabolized | Compound NOT metabolized | Compound metabolized | Compound NOT metabolized | Compound metabolized | Compound NOT metabolized | Compound NOT metabolized | Compound NOT metabolized | Compound NOT metabolized | Compound metabolized | Compound metabolized | Compound metabolized | Compound NOT metabolized | Compound metabolized | Compound metabolized | Compound NOT metabolized | Compound NOT metabolized
COC1=C(OC)C(=O)C(CCCCCCCCCCO)=C(C)C1=O [IDEBENONE] | Compound metabolized | Compound metabolized | Compound metabolized | Compound metabolized | Compound metabolized | Compound metabolized | – | Compound metabolized | Compound metabolized | Compound metabolized | Compound metabolized | Compound metabolized | Compound NOT metabolized | Compound metabolized | Compound metabolized | Compound NOT metabolized | – | Compound metabolized | Compound metabolized | Compound NOT metabolized
Cc1cc2c(s1)Nc1ccccc1N=C2N1CCN(C)CC1 [OLANZAPINE] | Compound NOT metabolized | Compound NOT metabolized | Compound NOT metabolized | Compound NOT metabolized | Compound NOT metabolized | Compound NOT metabolized | – | Compound NOT metabolized | Compound metabolized | Compound NOT metabolized | Compound NOT metabolized | Compound NOT metabolized | Compound metabolized | Compound NOT metabolized | Compound metabolized | – | Compound NOT metabolized | Compound metabolized | Compound NOT metabolized | Compound NOT metabolized
